Source: US12263182B2, “Method of introducing an mRNA molecule into a cell” (PCI Biotech AS, priority 2018, dated 2025)

Experiments:
skin of mice = experiment: Intradermal naked luciferase mRNA delivery with PCI, bio-luminescence imaging (IVIS) of injection sites; type: in vivo; details: for effect on mRNA delivery (fold increase in luminescence vs mRNA only): Example 1C, 2 μg unmodified mRNA L-6307, 0.003 μg TPCS2a
Protocol: Firefly luciferase mRNA (1921 nucleotides in length; L-6107—with modified bases 5-methylcytidine (5meC) and pseudo-uridine (ψ); L-6307—unmodified mRNA; L-7202—with modified base 5-methoxyuridine (5moU), and with the TriLink CleanCap™ modification as the capping structure, purchased from TriLink Biotechnologies, San Diego, USA) and TPCS2a (Amphinex®, PCI Biotech AS, Norway) were mixed in a volume of 20 μl PBS and the mixture was injected into the skin of mice at time 0. Different doses were used in different experiments, and in control samples no TPCS2a was used. Injections were performed in 4 sites (A-D) per mouse (see FIG. 1 and diagram and table below), and the injection sites were illuminated in general 60 min after mRNA/TPCS2a injection. With this set-up the two sites in each animal not receiving TPCS2a act as controls internal to each animal. This is useful for being able to correct for possible differences between animals e.g. in the injection and distribution of luciferin prior to the bio-luminescence imaging.
Injection sites were illuminated with blue light (wavelength between 400 and 540 nm with a peak at around 435 nm) from the LumiSource illumination device.
4-6 or 20-24 hours after illumination luciferase activity at the injection sites was analysed by bio-luminescence imaging in the IVIS instrument (IVIS Spectrum, model 124375R from PerkinElmer). Pictures were taken 20 min after luciferin injection, and bio-luminescence in a defined region-of-interest (ROI) around each injection site was quantified. The procedure for IVIS imaging was as follows: i) The mice were given an intraperitoneal injection of 3 mg D-Luciferin (200 μl of 15 mg/ml stock).
ii) After approximately 10 min, the mice were anaesthetized by a subcutaneous injection of Zoletil (10-15 mg/kg xylasin, 5-10 mg/kg butorphanol and 15-20 mg/kg Zoletil (containing zolazepam and tiletamine)).
iii) 20 min after D-luciferin injection, mice were placed in the IVIS instrument and pictures were taken with automatic exposure of Luminescence (Andor camera IS0825R4582; iKon Living Image version: 4.5.2.18424. Binning factor: 8; Excitation filter: Block; Emission filter: Open; f Number: 1)
iv) The bio-luminescence in ROIs covering each injection site was measured to quantify luciferase expression. The detailed set-up of a typical experiment (Example 1) can be found in Table 1.
Animals were injected by mRNA and TPCS2a as described under Methods and treated as described in Table 1 with the sites shown in FIG. 8.
3 μg mRNA and different amounts of TPCS2a (ranging from 0.0003 μg to 10 μg) were mixed and injected into the skin of mice as described under Methods. 60 min after the injections the mice were illuminated for 6 (in general) or 3 min (in one case) with blue light from the LumiSource illumination device. The animals were injected with luciferin and imaged in the IVIS instrument as described under Methods. The luminescence in defined regions of interest round the injection sites was assessed in the IVIS instrument. For each animal the luminescence at the sites receiving mRNA+TPCS2a was compared to the luminescence at the sites receiving mRNA only, and the fold increase (FI) in luminescence at the TPCS2a injected sites in each animal was calculated by the formula FI=luminescencemRNA+TPCS2a/luminescencemRNA only. […]
Lipofectamine is a very efficient transfection agent commonly used for delivery of mRNA and other nucleic acids; and it has also been used for mRNA delivery in vivo (Zangi et al., 2013, supra). However several type of toxic reactions have been observed with in vivo use of lipofectamine, limiting the possibilities for clinical use of this transfection agent. […]

TC-1 tumours = experiment: Intratumoural luciferase mRNA delivery with PCI (red light 652 nm), luciferase enzymatic assay on tumour homogenates; type: in vivo, mice; details: Example 2
Protocol: An experiment was performed to study in vivo naked mRNA delivery to TC-1 tumours (model for HPV-induced tumours) in mice.
In these experiments the TC-1 tumour model for HPV-induced cancer was employed. mRNA delivery was assessed by performing a luciferase enzymatic assay on homogenates from tumours harvested the day after illumination. Red light laser light illumination with a wavelength of 652 nm was used. The experiment was performed as follows: • Luciferase mRNA (L-7202 CleanCap™ FLuc mRNA (5moU)) from TriLink, 3 μg per injection) was mixed with TPCS2a and injected into the tumours in an injection volume of 20 μl. • 60 min after mRNA/TPCS2a injection the tumours were illuminated with different doses of red laser light (at 652 nm) for 12.5-500 seconds. • The day after illumination, all tumours were removed and frozen for later enzymatic assay for luciferase (Luciferase Assay System, Promega, Cat #E1500). • The protein content in the samples was measured with the RC DC Protein Assay kit (BioRad) assay, and the relative amounts of active luciferase in each sample was calculated as Relative Luminescence Units (RLU: Arbitrary units) per mg of protein.

MC-38 tumours = experiment: Intratumoural luciferase mRNA delivery with PCI (blue light), luciferase enzymatic assay on tumour homogenates; type: in vivo, mice; details: Example 3, 6 min blue light
Protocol: An experiment was performed to study in vivo naked mRNA delivery to colon adenocarcinoma tumours (MC-38 tumours) in mice.
The experiment was performed with Luciferase-encoding modified mRNA, and the effect was analysed by an enzymatic luciferase assay on tumour extracts, with tumours harvested 20 hours after illumination. Each animal had two tumours (A and B) that were injected and analysed separately.
TriLink modified luciferase mRNA (T14-GU03A), 3 μg was used per injection.
Female mice of the strain C57BL/6 (Charles River) were be used. Animal identification and conditions of housing, acclimatisation, environment, diet and water was in accordance with the current Standard Operating Procedures at the animal facilities at Oslo University Hospital—The Radium Hospital.
The animals were inoculated with 500 000 MC-38 cells per tumour, 2 tumours per animal. The size of the tumours on mRNA injection was 60-150 mm^3. Animals were randomized by tumour volume, animals with tumour ulcers were excluded. mRNA was mixed with TPCS2a and the mixture (25 μl) was injected into the tumours at time 0. The pure (naked) mRNA was injected at the same time point.
The injections were performed with gas anesthesia (Sevoflurane). The aim of the injection was to deposit a solution in the centre of the outer third of the tumour, avoiding the central core of the tumour. Insulin syringes were used to deliver the 25 μl of treatment.
The tumours in the PCI groups were illuminated (blue light from LumiSource) 60 min after mRNA/TPCS2a injection according to Table 5. The day after mRNA administration (i.e. around 20 hours after illumination) animals were killed and all tumours were removed and frozen for later homogenization and enzymatic assay for luciferase (Luciferase Assay System, Promega, Cat #E1500). After homogenization the amount of protein in the tumour extract was determined using the RC-DC Protein Assay (Bio-Rad Hercules, California, USA) and the luciferase enzymatic activity per mg tumour was calculated.

**Q.** For “tetraphenyl chlorin disulfonate [TPCS2a]”, which “enhancement of mRNA delivery by PCI, mean of all animals versus mRNA only” value (skin of mice; Example 1A, 12 sites each, 2 μg mRNA + 0.003 μg TPCS2a intradermal, 6 min blue light) is on record?
**A.** about 3 times

**Q.** What about the “mean bio-luminescence for the PCI treated sites versus the mRNA only sites” value (skin of mice; Example 1A, animal 6, 2 μg luciferase mRNA L-6107 + 0.003 μg TPCS2a intradermal, 6 min blue light, imaged 4 h after illumination) of the same substance?
**A.** more than 5 times

**Q.** What about the “effect on mRNA delivery, 6 versus 3 min illumination” value (skin of mice; Example 1B, 3 μg mRNA, 0.003 μg TPCS2a, 6 and 3 min blue light) of the same substance?
**A.** comparable enhancement of mRNA delivery

**Q.** And the “effect on mRNA delivery (luciferase expression, fold increase vs mRNA only)” value (skin of mice; Example 1B, 3 μg mRNA, TPCS2a dose of 0.0003 μg, blue light)?
**A.** improved mRNA delivery

**Q.** And the “effect on mRNA delivery (luciferase expression, fold increase vs mRNA only)” value (skin of mice; Example 1B, 3 μg mRNA, TPCS2a doses above 0.3 μg (PCI10, PCI3, PCI1), 6 min blue light)?
**A.** strongly detrimental effect on mRNA delivery

**Q.** And the “effect on mRNA delivery (luciferase expression, fold increase vs mRNA only)” value (skin of mice; Example 1B, 3 μg mRNA, TPCS2a doses of 0.01 μg and below, 6 min blue light)?
**A.** significant enhancement of mRNA delivery

**Q.** What about the “effect on mRNA delivery (luciferase expression, fold increase vs mRNA only)” value (skin of mice; Example 1B, 3 μg mRNA, TPCS2a doses of 0.3 to 0.03 μg, 6 min blue light) of the same substance?
**A.** did not alter luciferase expression significantly

**Q.** What about the “effect on mRNA delivery (fold increase in luminescence vs mRNA only)” value (skin of mice; 0.5 min blue light) of the same substance?
**A.** enhanced mRNA delivery

**Q.** What about the “effect on mRNA delivery (fold increase in luminescence vs mRNA only)” value (skin of mice; 4 min blue light) of the same substance?
**A.** enhanced mRNA delivery

**Q.** What about the “improvement of mRNA translation over what was achieved with lipofectamine” value (skin of mice; Example 1D, 2 μg mRNA L-7202 intradermal, 0.003 μg TPCS2a, 6 min blue light, imaged 4 h after illumination, comparator 6 μl lipofectamine) of the same substance?
**A.** ~4 times

**Q.** What about the “optimum illumination dose for PCI-enhanced mRNA delivery” value (TC-1 tumours; 3 μg mRNA + 0.1 μg TPCS2a, red light 652 nm) of the same substance?
**A.** around 2 J/cm^2

**Q.** And the “effect on mRNA delivery versus mRNA alone (RLU/mg protein)” value (TC-1 tumours; 3 μg mRNA + 0.1 μg TPCS2a, without illuminating the tumours)?
**A.** did not seem to enhance mRNA delivery significantly

**Q.** What about the “effect on mRNA delivery and translation (RLU/mg protein)” value (TC-1 tumours; 3 μg mRNA L-7202 + 0.1 μg TPCS2a intratumoural, red light 0.1 to 4 J/cm^2, tumours harvested day after illumination) of the same substance?
**A.** strong enhancement of mRNA delivery and translation

**Q.** What about the “effect on luciferase mRNA delivery (luciferase enzymatic activity in tumour homogenates, single tumours)” value (MC-38 tumours; 3 μg mRNA + 0.001-0.01 μg TPCS2a intratumoural, harvested 20 h after illumination) of the same substance?
**A.** substantially enhanced luciferase mRNA delivery

**Q.** And the “PCI-induced improvement in mRNA delivery compared to mRNA without PCI (group means)” value (MC-38 tumours; 0.003/6 min group: 3 μg mRNA + 0.003 μg TPCS2a)?
**A.** about 3 times

**Q.** What about the “PCI-induced improvement in mRNA delivery compared to mRNA without PCI (group means)” value (MC-38 tumours; 0.01/6 min group: 3 μg mRNA + 0.01 μg TPCS2a) of the same substance?
**A.** about 10 times
